Test results reported in US12048704B2, “Method for treatment of cancer with combination of cold atmospheric plasma and a gene inhibitor” (Jerome Canady Research Institute for Advanced Biological …, priority 2019, dated 2024).

Tested on: MDA-MB-231 cells
Assay: MTT cell viability assay with/without CAP treatment
Format: cell-based, Human
Settings: for cell viability (baseline toxicity), agent alone: MDA-MB-231, without CAP treatment, MTT 24 hours
Protocol: Human breast cancer cell lines T-47D, SK-BR-3, and BT-474, were purchased from ATCC (Manassas, Va., USA). MCF-7, MDA-MB-231, Hs578T, and HCC1806 were generously donated by Professor Kanaan' s laboratory at Howard University. All cell lines except SK-BR-3 were cultured in Roswell Park Memorial Institute (RPMI) 1640 Medium supplemented with 10% fetal bovine serum (Sigma-Aldrich, St. Louis, Mo., USA) and 1% Pen Strep (Thermo Fisher Scientific, Waltham, Mass., USA) in a 37° C. and 5% CO2 humidified incubator (Thermo Fisher Scientific, Waltham, Mass., USA). The exceptions for culture conditions include T-47D, which was additionally supplemented with 0.5 mg/mL insulin. SK-BR-3 was cultured in McCoy's 5A Medium. When cells reached approximately 80% confluence, cells were seeded at a concentration of 10^5 cells/well into 12-well plates (USA Scientific, Ocala, Fla., USA) with a 1 mL media volume per well for cell viability assays. MDA-MB-231 cells were transfected with siRNA and transfection reagent according to the manufacturer's instructions. Transfection of BCL2A1 esiRNA or control esiRNA was done at 13 pmol. Briefly, cells were seeded in a 12-well-plate at a density of 1×10^5 cells/well overnight in (RPMI) 1640 Medium supplemented with 10% fetal bovine serum (Sigma-Aldrich, St. Louis, Mo., USA) and 1% Pen Strep (Thermo Fisher Scientific, Waltham, Mass., USA) in a 37° C. and 5% CO2 humidified incubator. The media was replaced with antibiotics-free medium RPMI 2 minutes before the transfection. esiRNA was mixed with Lipofectamine RNAiMAX transfection reagent in 100 μl optimal medium at the required concentration of 13 pmol/mL and were incubated at room temperature for 30 min to form a complex and the mixture was supplemented to each well with optimal medium. Four hours after the transfection, the transfected cells were CAP treated. After 24 hours after the CAP treatment, cells viability was assessed by using MTT assay. Thiazolyl blue tetrazolium bromide (MTT) assay was performed on the cells 24 hours after plasma treatment following the manufacturer's protocol with all MTT assay reagents purchased from Sigma-Aldrich (St. Louis, Mo., USA). The absorbance of the dissolved compound was measured by BioTek Synergy HTX (Winooski, Vt., USA) microplate reader at 570 nm following standard procedure. All viability assays were repeated 3 times with at least 2 replicates each. Data was plotted by Microsoft Excel 2016 as the mean±standard error of the mean. A student t-test or a one-way analysis of variance (ANOVA) was used to check statistical significance where applicable. The differences were considered statistically significant for * p<0.05. A one-way multivariate analysis of variance (MANOVA) followed by a Post-Hoc test was used to check statistical significance where applicable. […] At 24 hrs after transfection with BCL2A1 esiRNA (13 pmol), as mentioned in methods section survival of treatments was determined by MTT assay. The data is represented by the SEM (n=3). (**** P<0.0001* p<0.05, ** p<0.01, *** p<0.001, Student's t-test) versus control. FIGS. 19A-19B show viability of triple cancer breast cancer cell line MDA-MB-231 with Gambogic acid, an antagonist of antiapoptotic Bc1-2 family (FIG. 19A) or CPI203 (FIG. 19B, a BET bromodomain inhibitor after CAP treatment. Bar graph represents MDA-MB-231 MTT cell viability assay after treatment with Gambogic acid (FIG. 19A) or CPI203 (FIG. 19B) in combination of with/without CAP treatment at 80 p Or 120 p 5 mins at 3 L/min He. The samples were compared to the mock control groups. The data is represented by the SEM (n=3). (* p<0.05, ** p<0.01, *** p<0.001, Student's t-test).

SMILES | cell viability, CPI203 with CAP treatment (MDA-MB-231, 0.25 uM, p<0.05) | cell viability, CPI203 with CAP treatment (MDA-MB-231, 1uM, p<0.01) | cell viability, CPI203 with CAP treatment (MDA-MB-231, 5uM, p<0.001) | cell viability (baseline toxicity), agent alone | CAP-induced cell death, combination of CAP and agent (breast cancer cells, p<0.05) | cell viability in combination with CAP treatment compared to CAP treatment alone (MDA-MB-231, CAP 80 p or 120 p 5 mins at 3 L/min He, MTT 24 hours after CAP)
Cc1sc2c(c1C)C(c1ccc(Cl)cc1)=N[C@@H](CC(N)=O)c1nnc(C)n1-2 [CPI203] | significant reduction in cell viability | significant reduction in cell viability | significant reduction in cell viability | without any cytotoxicity by itself | dramatically increased the CAP-induced cell death | 
CC(C)=CCC[C@]1(C)C=Cc2c(O)c3c(c(CC=C(C)C)c2O1)O[C@]12C(=C[C@@H]4C[C@H]1C(C)(C)O[C@@]2(C/C=C(/C)C(=O)O)C4=O)C3=O [GA, gambogic acid] |  |  |  | cell viability decreased in all the 5 doses |  | no dose that significantly reduced the viability of cells
